Here are results for one compound from US11084795B2, “CFTR regulators and methods of use thereof” (The Regents of the University of California, priority 2015, dated 2021).

For data set [1], the target named is human wildtype CFTR (Homo sapiens, UniProt P13569). Nature of the data set: Patch-clamp (whole-cell and inside-out) in FRT cells expressing human wildtype CFTR. The data set is classed as cell-based. Details: expressed in transfected cells. An excerpt: The pipette (intracellular) solution contained (in mM): 120 CsCl, 10 TEA-Cl, 0.5 EGTA, 1 MgCl2, 10 Cs-HEPES, 40 mannitol, 1 ATP (7.4). For inside-out patch-clamp experiments the pipette solution contained (in mM): 150 N-methyl-D-glucamine chloride (NMDG-Cl), 3 CaCl2, 2 MgCl2, 10 Na-Hepes (pH 7.3). […] Pipette electrical resistance for both whole-cell and inside-out experiments was 3-5 MΩ. The protocol for stimulation consisted of 600-ms voltage steps from −100 to +100 mV in 20 mV increments starting from a holding potential of −60 mV. The interval between steps was 4 s. Membrane currents were filtered at 1 kHz and digitized at 5 kHz. Data were analyzed using the Igor software (Wavemetrics, Portland, Oreg.) with custom software kindly provided by Dr. Oscar Moran.
On the technique in general: Patch clamp records ionic current or voltage across a cell membrane.

The subject of data set [2] is CFTR at the ocular surface. The data set can be described thus: Ocular surface potential difference (PD) in living mice. The data set is classed as in vivo, mouse. The note with it: wild-type mice, 1-10 μM. The procedure: Open-circuit transepithelial PD were measured continuously in anesthetized mice in response to serial perfusions of different solutions over the ocular surface, as described (21). Mice were anesthetized with Avertin (2,2,2-tribromoethanol, 125 mg/kg intraperitoneal, Sigma-Aldrich, St. Louis, Mo., USA), and core temperature was maintained at 37° C. using a heating pad. Eyes were oriented with the cornea and conjunctiva facing upward and exposed by retracting the eyelid with cross-action forceps. Solutions were isosmolar (320±10 mOsM; compositions provided in ref. 21) and contained 10μ[…] indomethacin to prevent CFTR activation by prostaglandins. The ocular surface was perfused at 6 mL/min through plastic tubing using a multireservoir gravity pinch-valve system (ALA Scientific, Westbury, N.Y., USA) and variable-flow peristaltic pump (medium flow model; Fisher Scientific, Fair Lawn, N.J., USA). A probe catheter was fixed 1 mm above the cornea using a micropositioner and a suction cannula was positioned 3 mm from the orbit. The measuring electrode was in contact to the perfusion catheter and connected to a high-impedance voltmeter (IsoMilivolt Meter; WPI). The reference electrode was grounded via a winged 21-gauge needle filled with isosmolar saline, and inserted subcutaneously in the abdomen. Measuring and reference electrodes consisted of Ag/AgCl with 3 M KCl agar bridges.
An open-circuit potential difference (PD) method developed in our lab was used to evaluate compound activity at the ocular surface in vivo, as depicted in FIG. 3A (21). Cl^− channel function was quantified by measuring PD during continuous perfusion of the ocular surface with a series of solutions that imposed a transepithelial Cl^− gradient and contained various channel agonists and/or inhibitors. The ocular surface was first perfused with isosmolar saline to record the baseline PD. Amiloride was then added to the perfusate, followed by exchange to a low Cl^− solution in which Cl^− with an impermeant anion, gluconate. These maneuvers allow for direct visualization of CFTR activation in response to addition of candidate CFTR activators.
Ocular surface potential difference measurements. Open-circuit transepithelial PD were measured continuously in anesthetized mice in response to serial perfusions of different solutions over the ocular surface, as described (21). Mice were anesthetized with Avertin (2,2,2-tribromoethanol, 125 mg/kg intraperitoneal, Sigma-Aldrich, St. Louis, Mo., USA), and core temperature was maintained at 37° C. using a heating pad. Eyes were oriented with the cornea and conjunctiva facing upward and exposed by retracting the eyelid with cross-action forceps. […]

Data set [3] can be described thus: In vitro metabolic stability in mouse liver microsomes. The data set is classed as in vitro ADME. The note with it: NADPH. The method, then: CFTRact-J027 (5 μM) was incubated for specified times at 37° C. with mouse liver microsomes (1 mg protein/ml; Sigma-Aldrich) in potassium phosphate buffer (100 mM) containing 1 mM NADPH, as described. The mixture was then chilled on ice, and 0.5 ml of ice-cold ethyl acetate was added. Samples were centrifuged for 15 min at 3000 rpm, the supernatant evaporated to dryness, and the residue was dissolved in 100 μL mobile phase (acetonitrile:water, 3:1) for LC/MS and assayed as described above.
In vitro metabolic stability. CFTRact-J027 (5 μM) was incubated for specified times at 37° C. with mouse liver microsomes (1 mg protein/ml; Sigma-Aldrich) in potassium phosphate buffer (100 mM) containing 1 mM NADPH, as described. The mixture was then chilled on ice, and 0.5 ml of ice-cold ethyl acetate was added. Samples were centrifuged for 15 min at 3000 rpm, the supernatant evaporated to dryness, and the residue was dissolved in 100 μL mobile phase (acetonitrile:water, 3:1) for LC/MS and assayed as described above.
In vitro metabolic stability. Test compound (at 5 μM) was incubated for specified times at 37° C. with mouse liver microsomes (1 mg protein/ml; Sigma-Aldrich, St. Louis, Mo.) in potassium phosphate buffer containing 1 mM NADPH, as described. Following ethyl acetate extraction, non-metabolized parent compound was assayed by LC/MS.

What is called half-life is the time needed for the level to fall by half in the phase considered.

human wildtype CFTR, sequence (P13569 whole entry): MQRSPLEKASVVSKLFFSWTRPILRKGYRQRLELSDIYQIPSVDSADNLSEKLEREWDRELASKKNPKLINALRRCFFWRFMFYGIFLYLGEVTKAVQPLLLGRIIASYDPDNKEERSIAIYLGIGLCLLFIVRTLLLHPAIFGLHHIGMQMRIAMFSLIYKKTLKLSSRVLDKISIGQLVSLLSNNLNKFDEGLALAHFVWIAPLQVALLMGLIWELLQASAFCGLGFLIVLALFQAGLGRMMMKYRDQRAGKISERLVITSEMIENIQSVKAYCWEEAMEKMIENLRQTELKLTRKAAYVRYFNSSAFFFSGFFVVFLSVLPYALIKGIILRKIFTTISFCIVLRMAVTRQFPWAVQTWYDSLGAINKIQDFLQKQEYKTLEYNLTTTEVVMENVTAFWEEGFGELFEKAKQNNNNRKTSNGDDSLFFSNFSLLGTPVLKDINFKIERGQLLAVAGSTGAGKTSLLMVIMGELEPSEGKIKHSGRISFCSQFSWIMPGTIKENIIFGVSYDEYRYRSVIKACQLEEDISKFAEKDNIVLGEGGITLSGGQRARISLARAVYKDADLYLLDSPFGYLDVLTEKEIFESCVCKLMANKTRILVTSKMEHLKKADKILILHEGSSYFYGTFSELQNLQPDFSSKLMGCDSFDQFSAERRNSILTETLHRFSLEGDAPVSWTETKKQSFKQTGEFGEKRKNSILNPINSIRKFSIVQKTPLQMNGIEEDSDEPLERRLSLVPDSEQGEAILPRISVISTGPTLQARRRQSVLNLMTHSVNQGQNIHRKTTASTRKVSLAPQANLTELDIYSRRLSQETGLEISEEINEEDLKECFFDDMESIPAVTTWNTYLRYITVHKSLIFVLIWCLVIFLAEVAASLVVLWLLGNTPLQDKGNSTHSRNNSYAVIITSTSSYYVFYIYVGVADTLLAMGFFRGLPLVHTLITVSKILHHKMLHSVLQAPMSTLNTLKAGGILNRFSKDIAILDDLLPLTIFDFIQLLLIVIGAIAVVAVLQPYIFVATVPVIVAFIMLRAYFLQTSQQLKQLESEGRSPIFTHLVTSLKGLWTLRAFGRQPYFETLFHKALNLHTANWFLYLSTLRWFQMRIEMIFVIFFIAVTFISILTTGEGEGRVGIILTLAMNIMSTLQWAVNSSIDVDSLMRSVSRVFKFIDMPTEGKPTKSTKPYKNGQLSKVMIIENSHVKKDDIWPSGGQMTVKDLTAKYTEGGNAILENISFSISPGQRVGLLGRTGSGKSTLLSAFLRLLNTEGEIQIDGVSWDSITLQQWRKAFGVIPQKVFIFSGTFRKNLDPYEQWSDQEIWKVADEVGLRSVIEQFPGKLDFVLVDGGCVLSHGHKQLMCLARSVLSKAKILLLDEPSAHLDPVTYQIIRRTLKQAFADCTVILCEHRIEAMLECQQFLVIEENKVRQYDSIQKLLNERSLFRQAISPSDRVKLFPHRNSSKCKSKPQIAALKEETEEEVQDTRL

On to `Nc1ccc([N+](=O)[O-])cc1-c1nc2ccccc2n(Cc2ccccc2)c1=O` [CFTRact-J027, 3-(2-amino-5-nitrophenyl)-1-benzylquinoxalin-2(1H)-one], for which, in data set [1] (1 μM after 150 nM forskolin), the “increase of CFTR activity, whole-cell recording” value is “more than four-fold”. Further, in data set [1] (1 μM after submaximal ATP and catalytic subunit of PKA), the “CFTR activity, inside-out patch” value is “strongly increased CFTR activity”. For the same compound, in data set [2], the “change in ocular surface PD” value is reported as “large hyperpolarizations”. Besides, in data set [3] (mouse hepatic microsomes), the “compound metabolized at 60 min” value was about 100%. Also, the “original compound remaining at 60 min” value in data set [3] (mouse liver microsomes) came to 7%. Further, the half-life at 5 μM in data set [3] (mouse, liver microsomes, 5 μM, read-out: elimination half-life in mouse liver microsomes) came to 21 min.
